Laboratory results: patent US20240067639A1, “SMALL MOLECULES THAT TARGET THE RNA THAT CAUSES ALS” (EXPANSION THERAPEUTICS, INC., priority 2020, published 2024)
Where two headings read alike, the source gives them in different places.

What was measured:
[1] = target: biotinylated r(G4C2)8 RNA and hnRNP H1-His6; assay: TR-FRET hnRNP H binding assay
Experimental: TR-FRET hnRNP H Binding Assay. The TR-FRET assays were performed as previously described (Disney et al., 2012) except the final concentrations of biotinylated r(G4C2)8 (SEQ ID NO: 2) RNA and hnRNP H1-His6 were 80 nM and 75 nM, respectively. The RNA was folded by heating to 95° C. for 5 min in 1× Folding Buffer followed by slowly cooling to room temperature. The buffer was adjusted to 1×TR-FRET Assay Buffer followed by addition of compound. The mixture was incubated for 15 min at room temperature and then hnRNP H1-His6 was added. After an additional 15 min incubation, streptavidin-XL665 (HTRF, Cisbio Bioassays) and anti-His6-Tb (HTRF, Cisbio Bioassays) were added to a final concentration of 40 nM and 0.44 ng/μL, respectively. After incubating for 1 h, TR-FRET was measured as previously described. The IC50s were either calculated by fitting the equation (1) in Graphpad Prism.

[2] = system: RAN translation of (G4C2)66-No ATG-GFP in HEK293T cells; assay: Cell-based assay of RAN translation inhibition (GFP/mCherry reporter); details: Homo sapiens, HEK-293T, 24 h, read-out: RANT IC25
[3] = Table D, HEK293T, 24 h treatment
[4] = Table F, HEK293T, 24 h treatment

SMILES	Ki ([1]; Table D)	Ki ([1]; Table F)	IC25 [2, 3]	other results
COc1ccc2c(c1)c1cc3c(C(=O)N[C@H](C)CN(C)C)nccc3c(C)c1n2C [Example 25, (R)—N-(1-(dimethylamino)propan-2-yl)-9-methoxy-5,6-dimethyl-6H-pyrido[4,3-b]carbazole-1-carboxamide]	39 µM	–	0.27 µM	–
Cc1c2ccncc2cc2c3c(OCCN(C)C)cccc3n(C)c12 [Example 55, 2-((5,6-dimethyl-6H-pyrido[4,3-b]carbazol-10-yl)oxy)-N,N-dimethylethanamine]	1.5 µM	–	–	IC25 [2]: 0.92 µM
Cc1c2ccncc2cc2c3cc(OCCN4CCC(F)CC4)ccc3n(C)c12 [Compound 229, 9-(2-(4-fluoropiperidin-1-yl)ethoxy)-5,6-dimethyl-6H-pyrido[4,3-b]carbazole]	–	4.2 µM	–	IC25 [2]: 2.2 µM
Cc1c2ccncc2cc2c3cc(OCCCN4CCOCC4)ccc3n(C)c12 [Compound 8, 4-(3-((5,6-dimethyl-6H-pyrido[4,3-b]carbazol-9-yl)oxy)propyl)morpholine]	11 µM	–	0.36 µM	–
Cc1c2ccncc2cc2c3cccc(OCC4=NCCN4)c3n(C)c12 [Compound 232, 7-((4,5-dihydro-1H-imidazol-2-yl)methoxy)-5,6-dimethyl-6H-pyrido[4,3-b]carbazole]	–	2 µM	–	IC25 [2, 4]: > 5 µM
Cc1c2ccncc2cc2c3cc(N4CCN(C)CC4)ccc3n(C)c12 [Compound 243, 5,6-dimethyl-9-(4-methylpiperazin-1-yl)-6H-pyrido[4,3-b]carbazole]	–	0.6 µM	–	IC25 [2, 4]: 1.2 µM
Cc1c2ccncc2cc2c3cc(C(=O)NCCO)ccc3n(C)c12 [Example 78, N-(2-hydroxyethyl)-5,6-dimethyl-6H-pyrido[4,3-b]carbazole-9-carboxamide]	3.6 µM	–	1.6 µM	–
Cc1c2ccncc2cc2c3cc(OCCN4CCC(C)CC4)ccc3n(C)c12 [Compound 227, 5,6-dimethyl-9-(2-(4-methylpiperidin-1-yl)ethoxy)-6H-pyrido[4,3-b]carbazole]	–	1.4 µM	–	IC25 [2]: > 5 µM
Cc1c2ccncc2cc2c3cc(OC[C@@H](C)N)ccc3n(C)c12 [Example 61, (R)-1-((5,6-dimethyl-6H-pyrido[4,3-b]carbazol-9-yl)oxy)propan-2-amine]	0.9 µM	–	1 µM	–
COC(=O)CCCOc1ccc2c(c1)c1cc3cnccc3c(C)c1n2C [Example 44b, methyl 4-((5,6-dimethyl-6H-pyrido[4,3-b]carbazol-9-yl)oxy)butanoate]	> 200 µM	–	–	–
COc1ccc2c(c1)c1cc3cnccc3c(C)c1n2C[C@@H](O)c1ccccc1 [Compound 19, (S)-2-(9-methoxy-5-methyl-6H-pyrido[4,3-b]carbazol-6-yl)-1-phenylethan-1-ol]	> 200 µM	–	–	–
Cc1c2ccncc2cc2c1sc1ccc(OCCN3CCOCC3)cc12 [Example 81, 4-[2-(5-methylbenzothiopheno[2,3-g]isoquinolin-9-yl)oxyethyl]morpholine]	> 200 µM	–	–	–
Cc1c2ccncc2cc2c3cc(OCc4ncc[nH]4)ccc3n(C)c12 [Compound 251, 9-((1H-imidazol-2-yl)methoxy)-5,6-dimethyl-6H-pyrido[4,3-b]carbazole]	–	19 µM	–	–
Cc1c2ccncc2cc2c3cc(O)ccc3n(C)c12 [Compound 2, 5,6-dimethyl-6H-pyrido[4,3-b]carbazol-9-ol]	> 200 µM	–	–	–
Cc1c2ccncc2cc2c3ccc(OCCN4CCOCC4)cc3n(C)c12 [Example 53, 4-(2-((5,6-dimethyl-6H-pyrido[4,3-b]carbazol-8-yl)oxy)ethyl)morpholine]	> 200 µM	–	–	–
Cc1c2ccncc2cc2c3cc(OCC4=NCCN4)ccc3n(CCCN3CCN(C)CC3)c12 [Example 43, 9-((4,5-dihydro-1H-imidazol-2-yl)methoxy)-5-methyl-6-(3-(4-methylpiperazin-1-yl)propyl)-6H-pyrido[4,3-b]carbazole]	27 µM	–	–	–

Continued, in another order:

Ki ([1]; Table D)	Ki ([1]; Table F)	SMILES	IC25 [2, 3]	other results
–	1.8 µM	Cc1c2ccncc2cc2c3cc(OCC4=NCCN4)cc(F)c3n(C)c12 [Compound 254, 9-((4,5-dihydro-1H-imidazol-2-yl)methoxy)-7-fluoro-5,6-dimethyl-6H-pyrido[4,3-b]carbazole]	–	IC25 [2, 4]: > 5 µM
29 µM	–	Cc1c2ccncc2cc2c3cc(C(=O)NCCC4CCN(C)CC4)ccc3n(C)c12 [Example 75, 5,6-dimethyl-N-(2-(1-methylpiperidin-4-yl)ethyl)-6H-pyrido[4,3-b]carbazole-9-carboxamide]	1.4 µM	–
12 µM	–	Cc1c2ccncc2cc2c3cc(C(N)=O)ccc3n(C)c12 [Example 69, 5,6-dimethyl-6H-pyrido[4,3-b]carbazole-9-carboxamide]	1.6 µM	–
36 µM	–	CNC(=O)c1ccc2c(c1)c1cc3cnccc3c(C)c1n2C [Example 70, N,5,6-trimethyl-6H-pyrido[4,3-b]carbazole-9-carboxamide]	3.6 µM	–
–	> 200 µM	Cc1c2ccncc2cc2c3cc(OCCN4CCOCC4)ccc3n(CC(C)(C)C)c12 [Compound 247, 4-(2-((5-methyl-6-neopentyl-6H-pyrido[4,3-b]carbazol-9-yl)oxy)ethyl)morpholine]	–	IC25 [2, 4]: > 5 µM
> 200 µM	–	Cc1c2ccncc2cc2c3cccc(OCCN4CCOCC4)c3n(C)c12 [Example 64, 4-(2-((5,6-dimethyl-6H-pyrido[4,3-b]carbazol-7-yl)oxy)ethyl) morpholine]	> 5 µM	–
–	6.1 µM	Cc1c2ccnc(C(=O)N[C@H](C)CN(C)C)c2cc2c3ccc(OCCCN4CCN(C)CC4)cc3n(C)c12 [Compound 222, (R)—N-(1-(dimethylamino)propan-2-yl)-5,6-dimethyl-8-(3-(4-methylpiperazin-1-yl)-propoxy)-6H-pyrido[4,3-b]carbazole-1-carboxamide]	–	IC25 [2, 4]: > 5 µM
6.1 µM	–	CNC(=O)COc1ccc2c(c1)c1cc3cnccc3c(C)c1n2C [Example 34, 2-((5,6-dimethyl-6H-pyrido[4,3-b]carbazol-9-yl)oxy)-N-methylacetamide]	1.2 µM	–
13 µM	–	Cc1c2ccncc2cc2c3cc(OCC4=NCCN4)ccc3n(C(C)C)c12 [Example 84, 9-(4,5-dihydro-1H-imidazol-2-ylmethoxy)-6-isopropyl-5-methyl-pyrido[4,3-b]carbazole]	> 5 µM	–
10 µM	–	Cc1c2ccncc2cc2c3cc(OCCCN4CCCC4)ccc3n(C)c12 [Compound 9, 5,6-dimethyl-9-(3-(pyrrolidin-1-yl)propoxy)-6H-pyrido[4,3-b]carbazole]	0.27 µM	–
–	6.9 µM	Cc1c2ccnc(C3CCCO3)c2cc2c3cc(C(=O)NCCN(C)C)ccc3n(C)c12 (centres unmarked) [Compound 216, N-(2-(dimethylamino)ethyl)-5,6-dimethyl-1-(tetrahydrofuran-2-yl)-6H-pyrido[4,3-b]carbazole-9-carboxamide]	–	IC25 [2, 4]: 1.7 µM
4 µM	–	Cc1c2ccncc2cc2c3cc(C(=O)NCCN(C)C)ccc3n(C)c12 [Example 68, N-(2-(dimethylamino)ethyl)-5,6-dimethyl-6H-pyrido[4,3-b]carbazole-9-carboxamide]	0.72 µM	–
21 µM	–	Cc1c2ccncc2cc2c3cc(OCC(=N)N)ccc3n(C)c12 [Example 45, 2-((5,6-dimethyl-6H-pyrido[4,3-b]carbazol-9-yl)oxy)acetimidamide]	–	–
10 µM	–	Cc1c2ccncc2cc2c3cc(OCCCC(=N)N)ccc3n(C)c12 [Example 44a, 4-((5,6-dimethyl-6H-pyrido[4,3-b]carbazol-9-yl)oxy)butanimidamide]	–	–
–	7.5 µM	Cc1c2ccncc2cc2c1oc1ccc(OCC3=NCCN3)cc12 [Compound 233, 9-((4,5-dihydro-1H-imidazol-2-yl)methoxy)-5-methylbenzofuro[2,3-g]isoquinoline]	–	–
> 200 µM	–	COc1ccc2c(c1)c1cc3cnccc3c(C)c1n2CCCN1CCN(C)CC1 [Compound 22, 9-methoxy-5-methyl-6-(3-(4-methylpiperazin-1-yl)propyl)-6H-pyrido[4,3-b]carbazole]	–	–
> 200 µM	–	COc1ccc2[nH]c3c(C)c4cnccc4cc3c2c1 [Example 49, 7-methoxy-11-methyl-10H-pyrido[3,4-b]carbazole]	–	–
–	1.8 µM	Cc1c2ccnc(C(=O)N[C@H](C)CN(C)C)c2cc2c3c(OCCCN4CCN(C)CC4)cccc3n(C)c12 [Compound 241, (R)—N-(1-(dimethylamino)propan-2-yl)-5,6-dimethyl-10-(3-(4-methylpiperazin-1-yl)propoxy)-6H-pyrido[4,3-b]carbazole-1-carboxamide]	–	–
–	20 µM	COc1cccc2c3cc4c(C(=O)N[C@H](C)CN(C)C)nccc4c(C)c3n(C)c12 [Compound 240, (R)—N-(1-(dimethylamino)propan-2-yl)-7-methoxy-5,6-dimethyl-6H-pyrido[4,3-b]carbazole-1-carboxamide]	–	–
> 200 µM	–	COc1ccc2c(c1)c1cc3c(C(=O)O)nccc3c(C)c1n2C [Compound 24, 9-methoxy-5,6-dimethyl-6H-pyrido[4,3-b]carbazole-1-carboxylic acid]	–	–
> 200 µM	–	COc1ccc2c(c1)c1cc3cnccc3c(C)c1n2C(C)C [Compound 18, 6-isopropyl-9-methoxy-5-methyl-6H-pyrido[4,3-b]carbazole]	–	–
> 200 µM	–	COc1ccc2sc3c(C)c4ccncc4cc3c2c1 [Example 67, 9-methoxy-5-methyl-benzothiopheno[2,3-g]isoquinoline]	–	–
